The results in this text go back to patent US12377087B2, “Compounds for the treatment of cancer” (UNIVERSITY OF LOUISVILLE RESEARCH FOUNDATION, INC., priority 2015, dated 2025).

The target of data set [1] is PFKFB3 (Homo sapiens, UniProt Q16875). The data set is described as follows: kinase activity of PFKFB3. Conditions: 10 μM. It counts as biochemical.
For data set [2], the system named is panel of 97 protein kinases. The data set can be described thus: KINOMEscan active-site dependent competition binding assay. Conditions: 10 μM; data not shown. The method, then: Kinase assays: The fructose-6-phosphate kinase activity of human recombinant PFKFB4 in the presence of DMSO±indicated 5MPN concentrations was assayed as previously described. The activity of 5MPN against 97 kinases was examined using a commercially available active-site dependent competition binding assay core service (KINOMEscanEDGE) that quantifies the capacity of lest agents to compete with an immobilized, active-site directed ligand using a DNA-tagged kinase and immobilized ligand and compound. For example, enzyme inhibition was studies using a ADP-Glo assay. […] ADP is converted into ATP, which is converted into light by a luciferase.

The test system of data set [3] is H460 cells. The data set is described as follows: proliferation / viable cell count (trypan blue) of H460 cells. It counts as cell-based, human. The method, then:
Cell Viability: Cells were incubated in 20% trypan blue (Sigma) for 5 minutes. Cells excluding trypan blue were counted using a standard hemocytometer (Hausser Scientific) to determine total numbers of viable cells. Data are expressed as mean±SD of three experiments. Proliferation Assays: H460 non-small cell lung cancer cells were plated in 24 well plates and exposed to increasing concentrations of the indicated inhibitors of Formula IV (FBR1-02 corresponds to [drawing 47] DMSO was used as vehicle. After 24, 48 and 72 hours of exposure, cells were detached and viable cells were counted by Trypan blue exclusion (representative counts at 48 hours shown).

For data set [4], the system named is A549. The data set can be described thus: viable cell count of A549 cells. It counts as cell-based. To be noted: A549, 48 hours. As to the method:
(§1) Cell Viability: Cells were incubated in 20% trypan blue (Sigma) for 5 minutes. Cells excluding trypan blue were counted using a standard hemocytometer (Hausser Scientific) to determine total numbers of viable cells. Data are expressed as mean±SD of three experiments.

For data set [5], the system named is HCT116. The data set is described as follows: viable cell count of HCT116 cells. Type of data set: cell-based. Conditions: HCT116, 48 hours. The method, then:
as §1

The test system of data set [6] is H460 human lung adenocarcinoma xenografts. The data set can be described thus: H460 xenograft tumor growth in athymic mice. Type of data set: in vivo, BALB/c athymic mice. Conditions: 120 mg/kg oral daily.
Data set [7] relates to LLC xenografts. The data set can be described thus: FDG uptake by micro-positron emission tomography in tumor-bearing mice. To be noted: 120 mg/kg by gavage, once. It counts as in vivo. As to the method:
At the end of the experiment, animals were euthanized, tumors removed and sections fixed in 10% formaldehyde for immunohistochemistry or snap-frozen in liquid nitrogen for analyses. Subsets of tumor-bearing mice (n=3) were injected i.p. with 2-[^18F]-fluoro-2-deoxyglucose (FDG, 150 μCi, 100 μl) and imaged by micro-positron emission tomography as previously described. Regions of interest in the tumors and cerebellum were quantified in quadruplicate and expressed as the mean±SD of the tumor:cerebellar FDG uptake ratio. Animal experiments were approved by the University of Louisville Institutional Animal Care and Use Committee.

Data set [8] deals with LLC xenografts. The data set is described as follows: Ki67 immunohistochemistry of LLC xenografts. It counts as in vivo, C57BL/6 mice. To be noted: 120 mg/kg by gavage daily, two weeks. As to the method:
Immunohistochemistry: Formalin-fixed, paraffin-embedded tissue sections were processed as previously described then incubated with anti-Ki-67 primary antibody (Abeam) overnight, followed by HRP-linked goat anti-rabbit secondary antibody (1:300. Pierce). Sections were developed with 3,3′-diaminobenzidine tetrahydrochloride, counterstained, scanned and analyzed with the positive pixel count algorithm as previously described. Data are depicted as % positive pixels/total pixels±SD.

Chain of PFKFB3 (Q16875 whole entry, species assumed): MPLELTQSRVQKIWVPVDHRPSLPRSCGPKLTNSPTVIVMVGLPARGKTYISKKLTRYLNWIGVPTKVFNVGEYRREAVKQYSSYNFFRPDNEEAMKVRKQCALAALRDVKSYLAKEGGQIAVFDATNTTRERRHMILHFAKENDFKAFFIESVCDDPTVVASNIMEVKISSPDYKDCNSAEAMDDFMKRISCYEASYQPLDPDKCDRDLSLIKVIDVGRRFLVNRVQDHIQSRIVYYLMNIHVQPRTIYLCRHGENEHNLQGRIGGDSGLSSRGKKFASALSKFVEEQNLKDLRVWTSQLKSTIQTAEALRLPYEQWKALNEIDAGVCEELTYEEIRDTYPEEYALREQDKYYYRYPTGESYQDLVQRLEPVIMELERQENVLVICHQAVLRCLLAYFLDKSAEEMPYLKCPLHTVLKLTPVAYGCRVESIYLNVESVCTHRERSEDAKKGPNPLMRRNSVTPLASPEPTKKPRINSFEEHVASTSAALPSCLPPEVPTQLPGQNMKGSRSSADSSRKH

As to `COc1cccc2c(NCCCCCO[N+](=O)[O-])ccnc12` [5MPN, 5-[(8-methoxyquinolin-4-yl)amino]pentyl nitrate], in data set [1], the “inhibition of PFKFB3 kinase activity” value is “no inhibition of kinase activity”. Besides, in data set [2], the “inhibition of a panel of 97 protein kinases” value is given as “not inhibited”. Also, in data set [3] (H460, 24-72 hours), the cell proliferation entry is listed as “reduction in cell proliferation”. Moreover, the “growth, viable cells” value in data set [3] (H460, 48 hours) is listed as “dose-dependent reduction in growth”; in data set [4], “dose-dependent reduction in growth”; in data set [5] it was “dose-dependent reduction in growth”. Moreover, in data set [3] (H460 transfected with PFKFB4, 10 μM 5MPN, 24 hours), the “anti-proliferative effect with over-expression of PFKFB4” value was “protected”. Also, the body weight result in data set [6] (H460-bearing athymic mice) is listed as “without affecting body weight”. Besides, the “tumor growth of H460 xenografts” value in data set [6] (athymic mice) was “suppressed the growth”. For the same molecule, the “2-[18F]-fluoro-2-deoxyglucose uptake, positron emission tomography” value in data set [7] is “marked reduction”. The “Ki67-positive cells in LLC xenografts” value in data set [8] is given as “reduction in Ki67-positive cells”.
